According to patent US8716287B2, “Pharmaceutical compounds” (Sentinel Oncology Limited, priority 2010, dated 2014):
“Also recorded” adds a separate entry of the source. Structures can show the parent of a compound that is named as a salt. Where two headings read alike, the source gives them in different places.

Legend:
HT29 cells = assay: Sensitisation of HT29 cells to SN38 (Alamar blue cell growth); type: cell-based, human; conditions: for fold shift in the IC50 value of SN38: HT29 cells; for Cell potentiation factor: SN38 sensitisation assay in HT-29 cells
Description: Studies were carried out to test the sensitising effect of compounds of the invention on the ability of the DNA damaging compound 7-ethyl-10-hydroxycamptothecin (SN38), an active metabolite of the anti-cancer drug irinotecan, to inhibit cell growth in HT29 cells.
The following protocol was used:
(a) HT29 cells were seeded in 96-well plates at a concentration of 3000 cells per well and allowed to adhere overnight prior to addition of compound or vehicle control.
(b) SN38 was prepared from a 10 mM DMSO stock to give a final concentration range of 1 μM, 300 nM, 100 nM, 30 nM, 10 nM, 3 nM, 1 nM, and vehicle control.
(c) Test compounds were prepared from 10 mM DMSO stocks to typically give a final concentration range of 3 μM, 1 μM, 0.3 μM. 0.1 μM, 0.03 μM and vehicle control. The final DMSO content was 0.4%.
(d) Test compounds were incubated with the cells for 72 h at 37° C. 5% CO2 in a humidified atmosphere.
(e) Alamar blue 10% (v/v) was then added and incubated for a further 6 h, and fluorescent product detected using the BMG FLUOstar plate reader.
(f) Data were analysed using a 4-parameter logistic equation in GraphPad Prism.
Sensitisation is determined by the enhancement in IC50 of SN38 by the addition of the Chk-1 kinase inhibitor. In the protocol described above, the IC50 for SN-38 is determined the presence of varying doses of the Chk-1 inhibitor. The fold shift represents a decrease in IC50 for SN-38 at a dose of Chk-1 inhibitor that has no effect by itself.

Chk-1 kinase = Chk-1 kinase (Homo sapiens (Human), UniProt O14757); assay: Chk-1 kinase inhibiting activity (33P-ATP filter assay, CHKtide substrate); type: biochemical
Description: The compounds of the invention were tested for activity against Chk-1 kinase using the materials and protocols set out below.
Base Reaction buffer: 20 mM Hepes (pH 7.5), 10 mM MgCl2, 1 mM EGTA, 0.02% Brij35, 0.02 mg/ml BSA, 0.1 mM Na3VO4, 2 mM DTT, 1% DMSO
*Required cofactors are added individually to each kinase reaction
(i) Prepare indicated substrate in freshly prepared Base Reaction Buffer
(ii) Deliver any required cofactors to the substrate solution above
(iii) Deliver indicated kinase into the substrate solution and gently mix
(iv) Deliver compounds in DMSO into the kinase reaction mixture
(v) Deliver ^33P-ATP (specific activity 0.01 μCi/μl final) into the reaction mixture to initiate the reaction.
(vi) Incubate kinase reaction for 120 minutes at room temperature
(vii) Reactions are spotted onto P81 ion exchange paper (Whatman #3698-915)
(viii) Wash filters extensively in 0.1% phosphoric acid.
(ix) Dry filters and measure counts in scintillation counter
Recombinant full length construct, N-terminal GST tagged, purified from insect cells.
No special measures were taken to activate this kinase.
Final concentration in assay=0.5 nM
Peptide sequence: [[…]]
Final concentration in assay=20 μM
No additional cofactors are added to the reaction mixture

[1] = Chk-1 kinase, Table 3, read-out: IC50
[2] = ranges given, read-out: IC50 values against Chk-1 kinase
[3] = comparative tests, Example 70, read-out: Chk-1 IC50

Chk-1 kinase, sequence (O14757 whole entry): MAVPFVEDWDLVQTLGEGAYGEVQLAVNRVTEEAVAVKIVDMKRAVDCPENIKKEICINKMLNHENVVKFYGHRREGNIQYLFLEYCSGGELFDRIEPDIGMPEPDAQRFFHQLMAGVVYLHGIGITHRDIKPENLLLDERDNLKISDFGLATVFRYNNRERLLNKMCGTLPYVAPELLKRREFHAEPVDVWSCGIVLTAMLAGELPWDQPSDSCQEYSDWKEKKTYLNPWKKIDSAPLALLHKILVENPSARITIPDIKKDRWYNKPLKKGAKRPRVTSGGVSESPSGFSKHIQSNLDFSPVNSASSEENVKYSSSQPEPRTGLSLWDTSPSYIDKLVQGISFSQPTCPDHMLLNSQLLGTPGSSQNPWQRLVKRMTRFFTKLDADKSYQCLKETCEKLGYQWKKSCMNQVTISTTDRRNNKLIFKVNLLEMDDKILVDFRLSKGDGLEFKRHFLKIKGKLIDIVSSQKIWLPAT

SMILES | IC50 (Chk-1 kinase; [1]) [nM] | IC50 (Chk-1 kinase; [2]) [nM] | other results
COc1cc(CCNCc2ccc(F)cc2)c(Br)cc1NC(=O)Nc1cnc(C#N)cn1 [Example 42, 1-{5-Bromo-4-[2-(4-fluoro-benzylamino)-ethyl]-2-methoxy-phenyl}-3-(5-cyano-pyrazin-2-yl)-urea hydrochloride] | 0.45 | < 10 | fold shift in the IC50 value of SN38 (HT29 cells; test compound at 1 μM): two; fold shift in the IC50 value of SN38 (HT29 cells; test compound at 3 μM): greater than ten
COc1cc(CCN[C@@H](C)c2ccc(N3CCNCC3)cc2)c(Cl)cc1NC(=O)Nc1cnc(C#N)cn1 [Example 52, 1-(5-Chloro-2-methoxy-4-{2-[(S)-1-(4-piperazin-1-yl-phenyl)-ethylamino]-ethyl}-phenyl)-3-(5-cyano-pyrazin-2-yl)-urea hydrochloride] | 0.13 | < 10 | –
COc1cc(CNCc2cccc(F)c2)ccc1NC(=O)Nc1cnc(C#N)cn1 [Example 58, 1-(5-Cyano-pyrazin-2-yl)-3-{4-[(3-fluoro-benzylamino)-methyl]-2-methoxy-phenyl}-urea hydrochloride] | 21 | – | –
COc1cc(CCN[C@H](C)c2ccc(F)cc2)ccc1NC(=O)Nc1cnc(C#N)cn1 [Example 43, 1-(5-Cyano-pyrazin-2-yl)-3-(4-{2-[(R)-1-(4-fluoro-phenyl)-ethylamino]-ethyl}-2-methoxy-phenyl)-urea] | 3.3 | < 10 | –
Cc1cc(NC(=O)Nc2cnc(C#N)cn2)ccc1CCNCc1ccc(F)cc1 [Example 36, 1-(5-Cyano-pyrazin-2-yl)-3-{4-[2-(4-fluoro-benzylamino)-ethyl]-3-methyl-phenyl}-urea hydrochloride] | 10 | – | –
COc1cc(CCNCc2ccccc2)ccc1NC(=O)Nc1cnc(C)cn1 [Example 32, 1-[4-(2-Benzylamino-ethyl)-2-methoxy-phenyl]-3-(5-methyl-pyrazin-2-yl)-urea hydrochloride] | 27 | – | IC50 (Chk-1 kinase; [3]): 27 nM; fold improvement in potency against Chk-1 (Chk-1 kinase; relative to Compound 338 of WO02/070494 (alkylene chain 1 to 2 carbon atoms)): ~3 fold
COc1cc(CCNCc2ccc(N3CCNCC3)cc2)c(Cl)cc1NC(=O)Nc1cnc(C#N)cn1 [Example 64, 1-{5-Chloro-2-methoxy-4-[2-(4-piperazin-1-yl-benzylamino)-ethyl]-phenyl}-3-(5-cyano-pyrazin-2-yl)-urea hydrochloride] | 0.03 | < 10 | –
N#Cc1cnc(NC(=O)Nc2ccc(CCNCc3cccc(F)c3)c(Cl)c2)cn1 [Example 9, 1-{3-Chloro-4-[2-(3-fluoro-benzylamino)-ethyl]-phenyl}-3-(5-cyano-pyrazin-2-yl)-urea] | 2 | < 10 | fold shift in the IC50 value of SN38 (HT29 cells; test compound at 3 μM): three; also recorded: greater than ten
COc1cc(CNCc2ccccc2)c(Cl)cc1NC(=O)Nc1cnc(C#N)cn1 [Example 56, 1-[4-(Benzylamino-methyl)-5-chloro-2-methoxy-phenyl]-3-(5-cyano-pyrazin-2-yl)-urea hydrochloride] | 2.8 | < 10 | –
COc1cccc(CNCCc2ccc(NC(=O)Nc3cnc(C#N)cn3)cc2Cl)c1 [Example 12, 1-{3-Chloro-4-[2-(3-methoxy-benzylamino)-ethyl]-phenyl}-3-(5-cyano-pyrazin-2-yl)-urea] | 11 | 10 to 100 | fold shift in the IC50 value of SN38 (HT29 cells; test compound at 3 μM): three; also recorded: greater than ten
CCOc1cc(CCNCc2ccc(F)cc2)c(Cl)cc1NC(=O)Nc1cnc(C#N)cn1 [Example 45, 1-{5-Chloro-2-ethoxy-4-[2-(4-fluoro-benzylamino)-ethyl]-phenyl}-3-(5-cyano-pyrazin-2-yl)-urea hydrochloride] | 1.2 | < 10 | –
COc1cc(OCCNCc2ccc(F)cc2)c(Cl)cc1NC(=O)Nc1cnc(C#N)cn1 [Example 47, 1-{5-Chloro-4-[2-(4-fluoro-benzylamino)-ethoxy]-2-methoxy-phenyl}-3-(5-cyano-pyrazin-2-yl)-urea hydrochloride] | 8.4 | < 10 | –
COc1cc(CCNCc2cccc(F)c2)c(Cl)cc1NC(=O)Nc1cnc(C#N)cn1 [Example 19, 1-{5-Chloro-4-[2-(3-fluoro-benzylamino)-ethyl]-2-methoxy-phenyl}-3-(5-cyano-pyrazin-2-yl)-urea hydrochloride] | 1.2 | < 10 | Cell potentiation factor (HT29 cells; compound at 3 μM): 50 fold; IC50 (Chk-1 kinase; [3]): 8 nM
CC(C)Oc1cc(CCNCc2ccc(F)cc2)c(Cl)cc1NC(=O)Nc1cnc(C#N)cn1 [Example 46, 1-{5-Chloro-4-[2-(4-fluoro-benzylamino)-ethyl]-2-isopropoxy-phenyl}-3-(5-cyano-pyrazin-2-yl)-urea hydrochloride] | 0.32 | < 10 | –
N#Cc1cnc(NC(=O)Nc2ccc(CCNCc3ccccc3Cl)c(Cl)c2)cn1 [Example 10, 1-{3-Chloro-4-[2-(2-chloro-benzylamino)-ethyl]-phenyl}-3-(5-cyano-pyrazin-2-yl)-urea] | 62 | 10 to 100 | fold shift in the IC50 value of SN38 (HT29 cells; test compound at 3 μM): three
N#Cc1cnc(NC(=O)Nc2ccc(CNCc3ccccc3)cc2)cn1 [Example 29, 1-[4-(Benzylamino-methyl)-phenyl]-3-(5-cyano-pyrazin-2-yl)-urea] | 320 | 100 to 1000 | fold shift in the IC50 value of SN38 (HT29 cells; test compound at 10 μM): four; Cell potentiation factor (HT29 cells; compound at 10 μM): 4 fold
C[C@@H](NCCc1ccc(NC(=O)Nc2cnc(C#N)cn2)cc1Cl)c1ccc(F)cc1 [Example 24, 1-(3-Chloro-4-{2-[(R)-1-(4-fluoro-phenyl)-ethylamino]-ethyl}-phenyl)-3-(5-cyano-pyrazin-2-yl)-urea hydrochloride] | 13 | 10 to 100 | –
COc1cc(CCNCc2ccc(F)cc2F)ccc1NC(=O)Nc1cnc(C#N)cn1 [Example 30, 1-(5-Cyano-pyrazin-2-yl)-3-{4-[2-(2,4-difluoro-benzylamino)-ethyl]-2-methoxy-phenyl}-urea] | 6.4 | < 10 | –
N#Cc1cnc(NC(=O)Nc2ccc(CCNCc3ccccc3F)c(Cl)c2)cn1 [Example 23, 1-{3-Chloro-4-[2-(2-fluoro-benzylamino)-ethyl]-phenyl}-3-(5-cyano-pyrazin-2-yl)-urea] | 11 | 10 to 100 | fold shift in the IC50 value of SN38 (HT29 cells; test compound at 3 μM): three; also recorded: greater than ten
N#Cc1cnc(NC(=O)Nc2ccc(CCNCCc3ccc(F)cc3F)c(Cl)c2)cn1 [Example 28, 1-(3-Chloro-4-{2-[2-(2,4-difluoro-phenyl)-ethylamino]-ethyl}-phenyl)-3-(5-cyano-pyrazin-2-yl)-urea] | 47 | 10 to 100 | –
COc1cccc(CNCc2ccc(NC(=O)Nc3cnc(C#N)cn3)c(OC)c2)c1 [Example 61, 1-(5-Cyano-pyrazin-2-yl)-3-{2-methoxy-4-[(3-methoxy-benzylamino)-methyl]-phenyl}-urea hydrochloride] | 7.5 | < 10 | –
COc1ccccc1CNCc1ccc(NC(=O)Nc2cnc(C#N)cn2)c(OC)c1 [Example 62, 1-(5-Cyano-pyrazin-2-yl)-3-{2-methoxy-4-[(2-methoxy-benzylamino)-methyl]-phenyl}-urea] | 7.8 | < 10 | –
COc1cccc([C@H](C)NCCc2cc(OC)c(NC(=O)Nc3cnc(C#N)cn3)cc2Cl)c1 [Example 65, 1-(5-Chloro-2-methoxy-4-{2-[(S)-1-(3-methoxy-phenyl)-ethylamino]-ethyl}-phenyl)-3-(5-cyano-pyrazin-2-yl)-urea hydrochloride] | 0.73 | < 10 | –
COc1cc(CNCc2ccc(F)cc2)c(Cl)cc1NC(=O)Nc1cnc(C#N)cn1 [Example 63, 1-{5-Chloro-4-[(4-fluoro-benzylamino)-methyl]-2-methoxy-phenyl}-3-(5-cyano-pyrazin-2-yl)-urea hydrochloride] | 9.8 | < 10 | –
COc1cc(CNCc2ccccc2F)ccc1NC(=O)Nc1cnc(C#N)cn1 [Example 59, 1-(5-Cyano-pyrazin-2-yl)-3-{4-[(2-fluoro-benzylamino)-methyl]-2-methoxy-phenyl}-urea hydrochloride] | 13 | – | –
